The values that follow come from patent EP2805705B1, “Packaging with one or more administration units comprising a sodium salt of (R)-3-[6-amino-pyridin-3-yl]-2-(1-cyclohexyl-1 H-imidazol-4-yl)-propionic acid” (IP Gesellschaft für Management mbH, priority 2013, dated 2014).

Each structure is given as a SMILES string.

A short description of data set [1]: Dynamic vapor sorption (DVS), SPS11-10µ, one cycle at 25 °C. Format: physicochemical. The note with it: DVS isotherm at 25 °C. Here is the method: (§1) Example 7: Dynamic vapor sorption (DVS) of (R)-3-[6-amino-pyridin-3-yl]-2-(1-cyclohexyl-1 H-imidazol-4-yl)-propionic acid sodium salt monohydrate: Moisture sorption/desorption isotherms were recorded on a SPS11-10µ from Projekt Messtechnik (Ulm, Germany). One cycle was run at 25 °C, in which the sample was first stepwise decreased to 0% RH and then the relative humidity was stepwise increased from 0 to 95% and the weight of the sample was measured. Typical total measurement times for both cycles were about 20 to 30 hours. The measured data for the (R)-3-[6-amino-pyridin-3-yl]-2-(1-cyclohexyl-1 H-imidazol-4-yl)-propionic acid sodium salt monohydrate as prepared in Examples 2 or 3 are shown in the following table: DVS Isotherm at 25 °C:
Example 12: DVS, Comparison Experiment: (R)-3-[6-amino-pyridin-3-yl]-2-(1-cyclohexyl-1 H-imidazol-4-yl)-propionic acid as prepared in Example 1 was used for the measurement. The measurement was performed as disclosed in Example 7 with (R)-3-[6-amino-pyridin-3-yl]-2-(1-cyclohexyl-1 H-imidazol-4-yl)-propionic acid (free acid, amorphous) and the received data are shown in the following table: DVS Isotherm at 25 °C
as §1, with “(DVS):” for “(DVS) of (R)-3-[6-amino-pyridin-3-yl]-2-(1-cyclohexyl-1 H-imidazol-4-yl)-propionic acid sodium salt monohydrate:”, “Room humidity (RH)” for “RH”, “dihydrate” for “monohydrate”, “Example” for “Examples 2 or”, “isotherm” for “Isotherm”, “25°C:” for “25 °C:”
Example 9: DVS, Comparison Experiment: (R)-3-[6-amino-pyridin-3-yl]-2-(1-cyclohexyl-1 H-imidazol-4-yl)-propionic acid as prepared in Example 1 was used for the measurement. The measurement was performed as disclosed in Example 7 with (R)-3-[6-amino-pyridin-3-yl]-2-(1-cyclohexyl-1 H-imidazol-4-yl)-propionic acid (free acid, amorphous) and the received data are shown in the following table: DVS Isotherm at 25 °C

The nature of data set [2]: Chiral stability on storage as a solid at 40 °C and 75 % RH (chiral HPLC). Format: physicochemical. The procedure: Example 8: Chiral stability: Representative samples of the crystalline sodium salt of (R)-3-[6-amino-pyridin-3-yl]-2-(1-cyclohexyl-1 H-imidazol-4-yl)-propionic acid sodium salt dihydrate as prepared in Example 3 were stored as a solid under the conditions (A) and (B): (A) 40 °C and 75 % RH 2 weeks; (B) 40 °C and 75 % RH 4 weeks: Results are shown in the following table:
Under the storage conditions the samples remain stable. […] The purity was determined by chiral HPLC on a HPLC system containing a Quaternary HPLC pump (e.g. HP 1100), an auto sampler, an UV absorbance detector (e.g. DAD Agilent Technologies or other adequate HPLC-System) and a computer data acquisition system with suitable software (e.g. Dionex-Chromeleon). A Zorbax SB_CN (4.6 x 100 mm, 3.5 µlτ ? ), column was used as stationary phase and two mobile phases A (975 mL water, 25 mL methanol, 1 mL perchloric acid) and B (975 mL methanol, 25 mL water) were used as mobile phases. The flow rate was set to a value of 1.0 mL/minute and the oven temperature was set to 15°C. Detection was performed by absorbance of the compounds at 236 nm (UV) (bandwidth: 4 nm) and reference wavelength was set to 450 nm (bandwidth: 50 nm). Typical total run times were in the range of about 10 minutes. For sample preparation 20 mg of the substance were accurately weighed into a 10 ml volumetric flask and dissolved and diluted to volume with solvent (acetonitrile/water 90:10 VN). Afterwards 1 ml of this solution was transferred to a 10 mL volumetric flask and then diluted to volume with water. For the HPLC analysis 5 µl of the sample were injected into the system. Gradient used: 0 min (time elapsed) 0% mobile phase B, 1 min 0% mobile phase B, 4 min 53% mobile phase B, 6 min 95% mobile phase B, 7 min 95% mobile phase B, 7.5 min 0% mobile phase B and after 10 min 0% mobile phase B. Enanatiomeric excess was determined by chiral HPLC on a HPLC system containing a Quaternary HPLC pump (e.g. HP 1100), an auto sampler, an UV absorbance detector (e.g. DAD Agilent Technologies or other adequate HPLC-System) and a computer data acquisition system with suitable software (e.g. Dionex-Chromeleon). A Chirobiotic R, Supelco (Astec) (4.6 x 250mm; 5µηη) column was used as stationary phase and a solution of 800 mL water, 1200 mL acetonitrile and 1.0 g ammoniumacetate was used as mobile phase. The flow rate was set to a value of 1.5 mL/minute and the oven temperature was set to 45°C. Detection was performed by absorbance of the compounds at 236 nm (UV) (bandwidth: 8 nm) and reference wavelength was set to 450 nm (bandwidth: 50 nm). Typical total run times were in the range of about 15 minutes. For sample preparation 50 mg of the substance were accurately weighed into a 10 mL volumetric flask and dissolved and diluted to volume with solvent (acetonitrile/water 50:50). For the HPLC analysis 5 µí of the sample were injected into the system. Gradient used: Isograt (15 minutes 100% mobile phase A).
Example 10: Chiral stability; Comparison Experiment: (R)-3-[6-amino-pyridin-3-yl]-2-(1-cyclohexyl-1 H-imidazol-4-yl)-propionic acid as prepared in Example 1 was used for the measurement. Representative samples of the compound (R)-3-[6-amino-pyridin-3-yl]-2-(1-cyclohexyl-1 H-imidazol-4-yl)-propionic acid as prepared in Example 1 were stored as a solid under the conditions (A) and (B) as defined in Example 8.

The format of data set [3] is physicochemical. The note with it: At 90% RH, 25°C. The procedure: Said crystal Form I according to the invention (samples obtained according to the process of scheme 1) was characterized by several physical methods such as X-ray Powder Diffraction, Differential Scanning Calorimetry, Thenno-Gravimetric Analysis, Water-Activity isotherm measurement, as shown below. X-Ray Powder Diffraction (XRPD): XRPD experiments are carried out on a Braker AXS D8 powder diffractometer using the Bragg-Brentano parafocusing geometry. A thin layer of the product is deposited on a single-crystal silicon wafer, cut out according to Si (510) crystallographic orientation that, by systematic extinction, impedes any Bragg reflection. […] Diagrams are recorded in the following conditions: a 1.5 to 40.0° scan in angle 20, 10 and 100 seconds counting time per degree in 20, according to the amount of powder to be analyzed, and ambient conditions of pressure, temperature and relative humidity. […] Between 1.5 and 5 mg of the product to be analyzed is placed in a semi-open aluminum sample pan. An endo thermic peak is recorded (onset around 104°C). […] A controlled relative humidity is generated by mixing different proportions of dry and water saturated carrier gas streams (monitored by mass flow conti llers). […] From the complete moisture sorption and desorption profile an isotherm is calculated using the DVS Advanced Analysis Suite v3.6. […]

The mark [4] stands for this setting: Storage condition (A) 40 °C and 75 % RH 2 weeks, stored as a solid.

Take `Nc1ccc(C[C@@H](C(=O)[O-])c2cn(C3CCCCC3)cn2)cn1.O.O.[Na+]` [(R)-3-[6-amino-pyridin-3-yl]-2-(1-cyclohexyl-1 H-imidazol-4-yl)-propionic acid sodium salt dihydrate]: the “Change In Mass (%) Desorption” value is -0.1% in data set [1] (Target RH 0.3 %), 0.0% in data set [1] (Target RH 10.0 %), 0.0% in data set [1] (Target RH 20.1 %) and 0.0% in data set [1] (Target RH 30.1 %). Besides, the “Change In Mass (%) Sorption” value is 0.0% in data set [1] (Target RH 10.0 %); 0.0% in data set [1] (Target RH 20.0 %); 0.0% in data set [1] (Target RH 30.0 %); 0.0% in data set [1] (Target RH 40.0 %); 0.0% in data set [1] (Target RH 50.0 %); 0.1% in data set [1] (Target RH 60.0 %). Besides, the “Change In Mass (%) Sorption” value in data set [1] (Target RH 70.1 %) worked out at 0.71%; in data set [1] (Target RH 75.0 %), 0.8%; in data set [1] (Target RH 80.0 %), 2.1%; in data set [1] (Target RH 85.1 %), 2.7%; in data set [1] (Target RH 90.1 %) it was 18.8%; in data set [1] (Target RH 94.9 %), 51.8%. The Enantiomeric excess in data set [2] (setting [4]) is 99.6%; in data set [2] (Storage condition (B) 40 °C and 75 % RH 4 weeks, stored as a solid), 99.5%; in data set [2] (at the beginning), 99.6%.
Take `Nc1ccc(C[C@@H](C(=O)O)c2cn(C3CCCCC3)cn2)cn1` [(R)-3-[6-amino-pyridin-3-yl]-2-(1-cyclohexyl-1 H-imidazol-4-yl)-propionic acid]: the “Change In Mass (%) Desorption” value is given as -1.6% in data set [1] (Target RH 0.4 %), 0.3% in data set [1] (Target RH 10.1 %), 1.1% in data set [1] (Target RH 20.0 %) and 1.7% in data set [1] (Target RH 30.1 %). For the same molecule, the “Change In Mass (%) Sorption” value in data set [1] (Target RH 10.0 %) was -0.5%; in data set [1] (Target RH 20.0 %) it was 0.5%; in data set [1] (Target RH 30.0 %), 1.9%; in data set [1] (Target RH 40.1 %), 3.9%; in data set [1] (Target RH 50.0 %), 6.6%; in data set [1] (Target RH 60.1 %), 9.6%. In addition, the “Change In Mass (%) Sorption” value was determined as 13.4% in data set [1] (Target RH 70.0 %); 15.0% in data set [1] (Target RH 75.0 %); 16.9% in data set [1] (Target RH 80.1 %); 20.1% in data set [1] (Target RH 85.1 %); 25.1% in data set [1] (Target RH 89.9 %); 32.3% in data set [1] (Target RH 95.0 %). For the same molecule, the Enantiomeric excess in data set [2] (setting [4]) turned out to be 94.9%; in data set [2] (at the beginning), 98.2%.
As for `COc1ccc(/C=C\c2cc(OC)c(OC)c(OC)c2)cc1NC(=O)[C@@H](N)CO` [crystal Form I, (2S)-2-amino-3-hydroxy-N-[2-methoxy-2-[(1Z)-2-(3,4,5-trimethoxyphenyl)ethenyl]phenyl] propanamide], in data set [3], the total water uptake entry was “less than 0.15 % (w/w)”.
